≈ marks a conversion by molar mass, not a printed value. Calls of active or inactive are those of the source. The calls are words filed in the database; no cut-off is given here.
Tests used:
Staphylococcus aureus [1] = experiment: Antibacterial activity against Staphylococcus aureus at 200 ug/disk after 18 hrs by paper disk agar diffusion assay; assay type: functional; conditions: read-out: IZ
Staphylococcus aureus [2] = experiment: Antibacterial activity against Staphylococcus aureus at 100 ug/disk after 18 hrs by paper disk agar diffusion assay; assay type: functional; conditions: read-out: IZ
Staphylococcus aureus [3] = experiment: Antibacterial activity against Staphylococcus aureus at 50 ug/disk after 18 hrs by paper disk agar diffusion assay; assay type: functional; conditions: read-out: IZ
Candida albicans = experiment: Antifungal activity against Candida albicans at 200 ug/disk after 18 hrs by paper disk agar diffusion assay; assay type: functional, organism-based
DNA = experiment: Binding affinity to calf thymus DNA by DNA intercalating assay relative to ethidium bromide; assay type: nucleic-acid assay; conditions: Bos taurus
[4] = Cytotoxicity against human NSCLC-N6 L16; assay type: functional
MIA PaCa-2 = experiment: Cytotoxicity against human PaCa2; assay type: functional, cell-based
DU-145 = experiment: Cytotoxicity against human DU145; assay type: functional, cell-based
Paracentrotus lividus = experiment: Inhibition of sea urchin egg division

COC1(CO)Nc2cc(Br)ccc2C1=O (centres undefined) [MATEMONE]
zone of inhibition at 200 µg/disc (Staphylococcus aureus [1]): 11 mm
zone of inhibition at 100 µg/disc (Staphylococcus aureus [2]): 9 mm
zone of inhibition at 50 µg/disc (Staphylococcus aureus [3]): 7 mm
Activity (Candida albicans): inactive
Activity (DNA): 40%
IC50 [4]: 30 µg/mL (≈ 110 µM)
IC50 (MIA PaCa-2): 24 µg/mL (≈ 88.2 µM)
IC50 (DU-145): 27 µg/mL (≈ 99.2 µM)
IC50 (Paracentrotus lividus): 35 µg/mL (≈ 129 µM)

From ChEMBL document CHEMBL1155555, “Matemone, a new bioactive bromine-containing oxindole alkaloid from the indian ocean sponge Iotrochota purpurea” (J Nat Prod, 2000)
